Assay [1] addresses T1, aldose reductase (Bos taurus, UniProt P16116).
T1 construct: preparation of the enzyme from bovine lens; from tissue; host or cells: bovine lens
Briefly: in vitro aldose reductase inhibition (modified Hayman and Kinoshita procedure). In kind it is biochemical, bovine (lens). Particulars: for inhibition at 10 µM: read-out: % Inhibition IN VITRO 10^-5 M; for inhibition at 1 µM: 10^-6 M; for inhibition at 0.1 µM: 10^-7 M. The text has this: In the present case the procedure of Hayman and Kinoshita was modified in that the final chromatography step was omitted in the preparation of the enzyme from bovine lens.

Assay [2] has as its system galactosemic rats. Briefly: lowering of dulcitol (galactitol) accumulation in tissues of galactosemic rats. In kind it is in vivo, rat (male Sprague-Dawley). The following applies: for % Lowering dulcitol accumulation IN VIVO, D: Table 1, diaphragm. Here is the method: Such experiments are exemplified hereinbelow after the listing of the following general comments pertaining to these experiments:
Male Sprague-Dawley rats, weighing approximately 90 grams were separated into groups of equal average body weight, with six animals per group. The animals were housed in cages of six animals each and maintained on 12 hour night/12 hour day cycles. Except as otherwise noted, the animals were given food and water ad libitum.
On day 1, the galactosemic control group and all drug-treated groups were given access to 20% galactose chow (Bio-Serv, Frenchtown, NJ). Animals in the control group were given access to 20% glucose chow (Bio-Serv). Test compounds were administered either in the diet or by gavage as a suspension in 2% Tween 80 in saline. In experiments, in which gavage dosing was used, the animals were administered the test compound daily at approximately the same hour each day. Food intake and body weight were determined twice during the course of the experiment. In cases in which the compound was administered in the diet, the average dose was calculated on the basis of the actual average food intake during the experiment.
On the morning of day 5, all animals were fasted; beginning two hours later the animals were decapitated and the lenses, sciatic nerves, and a 50-100 mg portion of the diaphragm were removed, weighed, and frozen in porcelain plates on dry ice.
Only two minor reagent changes were made: (a) the rinsing mixture was an aqueous 5% (w/v) trichloroacetic acid solution and (b) the stock solution was prepared by dissolving 25 mg of dulcitol in 100 mL of an aqueous trichloroacetic acid solution. [N.B.: For each experiment the average value found in the tissue from rats fed the glucose diet was subtracted from the individual values found in the corresponding tissue in galactose-fed rats to obtain the amount of polyol accumulated.]
The figures under L, N and D represent the percentage decrease of galactitol accumulation in the tissues of the lens, sciatic nerve, and diaphragm, respectively, for treated rats as compared to untreated rats.

The test system of assay [3] is aldose reductase. The following applies: reported in U.S. Pat. No. 4,568,693; cited from earlier work.

Where two headings read alike, the source gives them in different places.

Consider `CSc1nc(Cc2ccccc2)nc(OCC(=O)O)c1C#N`, for which, in assay [1] (Table 1, 10^-5 M), the inhibition at 10 µM amounted to 91%. In assay [1] (Table 1), this compound registered an inhibition at 1 µM of 90% and an inhibition at 0.1 µM of 78%.

For the compound `N#Cc1c(OCC(=O)O)nc(C2CCCCC2)nc1SCc1ccccc1` [Example 8 (Table 1)], the inhibition at 10 µM in assay [1] (Table 1, 10^-5 M) was 95%. In assay [1] (Table 1), at 1 µM the inhibition was 91% and the inhibition at 0.1 µM was found to be 73%.

For the compound `CCCc1nc(OCC(=O)O)c(C#N)c(SC)n1` [Example 7 (Table 1)], the inhibition at 10 µM in assay [1] (Table 1, 10^-5 M) is 92%. In addition, in assay [1] (Table 1), the inhibition at 1 µM was 89% and 0.1 µM produced 74% inhibition.

With `CSc1nc(C(C)C)nc(OCC(=O)O)c1C#N` [Example 5 (Table 1)], in assay [1] (Table 1), the inhibition at 1 µM was 97% and the inhibition at 0.1 µM stood at 88%. Further, the inhibition at 10 µM in assay [1] was 98%.

As for `Cc1nc(-c2ccccc2)nc(OCC(=O)O)c1C#N`, in assay [1] (Table 2, 10^-5 M), the inhibition at 10 µM amounted to 92%. In assay [1] (Table 2), the inhibition at 1 µM is 88% and 0.1 µM produced 79% inhibition.

`CC(C)c1nc(-c2cccc3c(Br)cccc23)nc(OCC(=O)O)c1C#N` [Example 6 (Table 2)]: in assay [1] (Table 2, 10^-5 M), the inhibition at 10 µM came to 94%. In addition, in assay [1] (Table 2), the inhibition at 1 µM was 90% and the inhibition at 0.1 µM was 53%.

As to `N#Cc1c(Cc2cccc3ccccc23)nc(-c2cccc3c(Br)cccc23)nc1OCC(=O)O` [Example 1 (Table 2), [[2-(5-Bromo-1-naphthalenyl)-5-cyano-6-[(1-naphthalenyl)methyl]-4-pyrimidinyl]oxy]acetic Acid], the inhibition at 10 µM in assay [1] (Table 2, 10^-5 M) worked out at 90%. In assay [1] (Table 2), the inhibition at 1 µM is 85% and the inhibition at 0.1 µM was 46%.

Take `CC(C)(C)c1nc(OCC(=O)O)c(C#N)c(SCc2ccccc2)n1` [Example 16 (Table 1)]: the “% Lowering dulcitol accumulation IN VIVO, D” value in assay [2] (97 mg/kg) is given as 67%. In addition, the inhibition at 10 µM in assay [1] (Table 1, 10^-5 M) was 86%. In assay [1] (Table 1), this compound registered an inhibition at 1 µM of 85% and an inhibition at 0.1 µM of 82%.

Take `CSc1nc(C(C)(C)C)nc(OCC(=O)O)c1C#N` [Example 3 (Table 1)]: the “% Lowering dulcitol accumulation IN VIVO, D” value in assay [2] (83 mg/kg) turned out to be 32%. The inhibition at 10 µM in assay [1] (Table 1, 10^-5 M) amounted to 89%. Moreover, in assay [1] (Table 1), the inhibition at 1 µM amounted to 88% and at 0.1 µM the inhibition was 82%.

On to `CC(C)Sc1nc(C(C)(C)C)nc(OCC(=O)O)c1C#N` [Example 12 (Table 1)], for which the “% Lowering dulcitol accumulation IN VIVO, D” value in assay [2] (82 mg/kg) came to 19%. Further, the inhibition at 10 µM in assay [1] (Table 1, 10^-5 M) amounted to 92%. Also, in assay [1] (Table 1), the inhibition at 1 µM was found to be 91% and the inhibition at 0.1 µM was 89%.

Turning to `CC(C)(C)c1nc(OCC(=O)O)c(C#N)c(SCc2ccc(Br)cc2F)n1` [Example 2 (Table 1)], in assay [2] (99 mg/kg), the “% Lowering dulcitol accumulation IN VIVO, D” value is reported as 47%. In assay [1] (Table 1), this compound returned an inhibition at 1 µM of 93% and an inhibition at 0.1 µM of 93%. Moreover, the inhibition at 10 µM in assay [1] was 98%.

In the case of `Cc1nc(-c2cccc3ccccc23)nc(OCC(=O)O)c1C#N` [Example 3 (Table 2)], the inhibition at 10 µM in assay [1] (Table 2, 10^-5 M) is 93%. Further, in assay [1] (Table 2), testing at 1 µM gave an inhibition of 85% and testing at 0.1 µM gave an inhibition of 46%.

Regarding `CSc1nc(-c2cccs2)nc(OCC(=O)O)c1C#N` [Example 17 (Table 1)], in assay [1] (Table 1), the inhibition at 1 µM is 97% and the inhibition at 0.1 µM was found to be 92%. For the same compound, in assay [1], the inhibition at 10 µM was determined as 98%.

As for `N#Cc1c(OCC(=O)O)nc(-c2cccc3ccccc23)nc1-c1ccccc1` [Example 5 (Table 2)], the inhibition at 10 µM in assay [1] (Table 2, 10^-5 M) worked out at 79%. In assay [1] (Table 2), this compound had an inhibition at 1 µM of 76% and an inhibition at 0.1 µM of 53%.

On to `CSc1nc(CC(C)(C)C)nc(OCC(=O)O)c1C#N` [Example 4 (Table 1)], for which, in assay [2] (98 mg/kg), the “% Lowering dulcitol accumulation IN VIVO, D” value turned out to be 22%. In assay [1] (Table 1, 10^-5 M), the inhibition at 10 µM came out at 95%. In assay [1] (Table 1), this compound displayed an inhibition at 1 µM of 96% and an inhibition at 0.1 µM of 85%.

On to `N#Cc1c(OCC(=O)O)nc(-c2ccccc2)nc1-c1ccccc1` [Example 4 (Table 2)], for which the “% Lowering dulcitol accumulation IN VIVO, L” value in assay [2] (Table 2, lens, 100 mg/kg) worked out at 17%. The compound also gave an inhibition at 0.1 µM in assay [1] (Table 2) of 85%.

For `CSc1nc(C)nc(OCC(=O)O)c1C#N` [Example 13 (Table 1)], the inhibition at 10 µM in assay [1] (Table 1, 10^-5 M) was 90%. In assay [1] (Table 1), this compound gave an inhibition at 1 µM of 84% and an inhibition at 0.1 µM of 55%.

With `COc1ccc2c(C(=S)N(C)CC(=O)O)cccc2c1C(F)(F)F` [tolrestat, N-[[6-methoxy-5-(trifluoromethyl)-1-naphthalenyl]-thioxomethyl]-N-methylglycine, reference compound], the “inhibitor of aldose reductase” value in assay [3] was “effective inhibitor of aldose reductase”.

`CC(C)(C)c1nc(OCC(=O)O)c(C#N)c(SCc2ccc(Br)cc2)n1` [Example 10 (Table 1)]: the “% Lowering dulcitol accumulation IN VIVO, D” value in assay [2] (135 mg/kg) was determined as 58%. Besides, the inhibition at 10 µM in assay [1] (Table 1, 10^-5 M) is 95%. For the same compound, in assay [1] (Table 1), the inhibition at 1 µM came to 95% and the inhibition at 0.1 µM is 95%.

In the case of `CCCCCCSc1nc(C(C)(C)C)nc(OCC(=O)O)c1C#N` [Example 11 (Table 1)], in assay [2] (112 mg/kg), the “% Lowering dulcitol accumulation IN VIVO, D” value is on record as 60%.

Turning to `CSc1nc(-c2ccccc2)nc(OCC(=O)O)c1C#N` [Example 14 (Table 1)], in assay [2] (96 mg/kg), the “% Lowering dulcitol accumulation IN VIVO, D” value was determined as 55%. For the same compound, in assay [1] (Table 1, 10^-5 M), the inhibition at 10 µM worked out at 92%. In assay [1] (Table 1), this compound displayed an inhibition at 1 µM of 87% and an inhibition at 0.1 µM of 75%.

Consider `CSc1nc(-c2ccc(Br)cc2)nc(OCC(=O)O)c1C#N` [Example 9 (Table 1)], for which the “% Lowering dulcitol accumulation IN VIVO, D” value in assay [2] (114 mg/kg) came to 27%. Besides, the inhibition at 10 µM in assay [1] (Table 1, 10^-5 M) turned out to be 95%. Moreover, in assay [1] (Table 1), 1 µM produced 93% inhibition and testing at 0.1 µM gave an inhibition of 82%.

As for `CC(C)(C)c1nc(OCC(=O)O)c(C#N)c(SCC2CCCCC2)n1` [Example 1 (Table 1), [[5-Cyano-6-[(cyclohexylmethyl)thio]-2-(1,1-dimethylethyl)-4-pyrimidinyl]oxy]acetic Acid], the inhibition at 10 µM in assay [1] (Table 1, 10^-5 M) came to 97%. In assay [1] (Table 1), this compound registered an inhibition at 1 µM of 96% and an inhibition at 0.1 µM of 88%.

Regarding `CSc1nc(C2CCCCC2)nc(OCC(=O)O)c1C#N` [Example 15 (Table 1)], in assay [1] (Table 1, 10^-5 M), the inhibition at 10 µM came to 90%. In assay [1] (Table 1), this compound returned an inhibition at 1 µM of 90% and an inhibition at 0.1 µM of 74%.

One may read the inhibition as the relative decrease from the control value, in per cent.

Source of the values: patent US4906753A, “Preparation of 2,6-disubstituted-5-cyano-4-pyrimidinyloxyacetic acid aldose reductase inhibitors” (American Home Products Corporation, priority 1988, dated 1990).
